# Measurements published in patent publication US7632506B2, “Identification of new NY-ESO-1 epitopes recognized by CD4+ T-cells” (Ludwig Institute for Cancer Research, priority 2005, dated 2009).
# Key:
# [1] = test system: CD4+ T cell clones NW2337-CD4-1 and NW2337-CD4-10; assay: Peptide titration ELISPOT assay with overlapping NY-ESO-1 peptides; type: cell-based, human; details: peptide 10 μM to 0.1 nM pulsed onto autologous EBV-B-cells
# Procedure: (§1) The CD4^+ T cells were restimulated weekly with 1 μg/ml of the peptide being used. On day 12, each CD4^+ culture was assayed for NY-ESO-1 peptide recognition, using the ELISPOT assay of lager, et al., Proc. Natl. Acad. Sci. USA, 97(9):4760-4765 (2000), incorporated by reference. To elaborate on this procedure, flat-bottomed, 96-well nitrocellulose plates were coated with 5 μg/ml of anti-interferon-gamma antibody and incubated overnight at 4° C. After washing with PBS, plates were blocked with 10% human serum (HS) for 1 hour at 37° C. Depending on the effector:target ratio used, various numbers of presensitized CD4^+ T-cells were added to each well along with 5×10^4 autologous peptide pulsed EBV transfected B cells (“EBV-B cells”) serving as target cells and incubated for 16 hours at 37° C. in TCM without IL-2. Plates were then washed extensively (6 times with a solution of 0.05% Tween 20/PBS), and biotinylated anti-interferon-gamma detection antibody was added at a concentration of 0.5 μg/ml. After incubation for 2 h at 37° C., plates were washed and incubated with ABC-AP Vectastain for 1 hour. Plates were washed again and developed with substrate (BCIP/NPT) until blue spots were visible. The number of blue spots/well represented the proportion of NY-ESO-1 specific CD4^+ T-cells/well was finally counted under the microscope.
# To further identify the exact epitope required for CD4^+ T cell recognition by these two CD4^+ T cell clones, a peptide titration assay was performed using overlapping NY-ESO-1 peptides (FIG. 2) at concentrations between 10 μM and 0.1 nM, pulsed onto autologous EBV-B-cells and tested in ELISPOT assays (FIG. 3).
# CD4+ T cells [2] = assay: IFN-γ ELISPOT of CD4+ T cells presensitized with overlapping NY-ESO-1 18 mer peptides; type: cell-based, human; details: patient NW2337, limiting dilution
# [3] = test system: CD4+ T cell clones NW2337-CD4-1 and NW2337-CD4-10; assay: 51Cr release assay with peptide-pulsed EBV-B target cells; type: cell-based, human; details: for recognition by clone NW2337-CD4-10: clone generated with p55-72
# Procedure: In these experiments, exemplary clones NY-ESO-1 p49-66 specific CD4^+ T cell clone NW2337-CD4-1 and NY-ESO-1 p55-72 specific CD4^+ T cell clone NW2337-CD4-10 were characterized in ^51Chromium (^51Cr) release assays using peptides overlapping the sequence of each stimulation peptide. Standard ^51Cr release assay methods were used. Briefly, autologous EBV B cell target cells were labeled with 100 μCi Na2^51CrO4 for 2 hours, and pulsed with 18 mer or 20 mer NY-ESO-1 peptides (10 μg/ml) for 1 hour. Then, 1×10^3 target cells/well were incubated in 96 V- bottom microwell plates with effector cells at different E/T ratios for 4 h at 37° C. ^51Cr release was measured in the supernatant and the specific cytotoxicity was calculated using the standard methods. Polyclonal T-cell populations were preincubated with unlabeled K562 cells as competitors at a concentration of 40:1 in order to block non-specific effector reactions.
# These experiments confirmed recognition of naturally presented NY-ESO-1 epitopes by the CD4+ T-cell clones.
# CD4+ T cells [4] = assay: IFN-γ ELISPOT of CD4+ T cells presensitized with overlapping NY-ESO-1 18 mer peptides; type: cell-based, human; details: for Patient T cells 1 / Patient T cells 2 / Patient T cells 3: IFN-γ ELISPOT; for Patient T cells 1: day 12, CD4+ T cells of patient 1, autologous peptide pulsed EBV-B cells as targets; for Patient T cells 2: day 12, CD4+ T cells of patient 2, autologous peptide pulsed EBV-B cells as targets; for Patient T cells 3: day 12, CD4+ T cells of patient 3, autologous peptide pulsed EBV-B cells as targets; for patients whose CD4+ T cells recognized the peptide: three patients tested
# Procedure: Peripheral blood mono-nuclear cells (“PBMCs”) were separated from heparinized blood via Ficoll density gradient separation, using standard, art recognized techniques. Once this was done, the CD4^+ and CD8^+ T cells were separated from each other using magnetic cell sorting techniques which are well known to the art, producing CD4^+, CD8^+, and CD4^−/CD8^− cell populations.
# A series of 18 mer peptides were prepared from the amino acid sequence of NY-ESO-1 as set forth in, e.g., U.S. Pat. No. 5,804,381, incorporated by reference. The peptides were designed to cover the entire sequence of NY-ESO-1, and to provide overlap.
# The peptides were then individually pulsed to antigen presenting cells (“APCs”). These were CD4^−/CD8^− PBMCs taken from the same subjects who had provided the CD4^+ and CD8^+ cells. These APCs were irradiated with 3000 rads, and then pulsed with one of the peptides, at a concentration of 10 μg/ml, for 1 hour, in serum free medium. These APCs were then washed, and added to the CD4^+ cells. In the pulsing experiments, the peptides were solubilized in DMSO (100%) and then diluted with PBS to a final concentration of 10% DMSO. The CD4^+ cells had been cultured in a medium of L-arginine (242 mg/l), L-asparagene (50 mg/l), L-glutamine (300 mg/l), penicillin (10 IU/ml), streptomycin (100 μg/ml), 1% non-essential amino acids, 10% HS, and 10 ng/ml of recombinant human IL-2.
# as §1
# The EBV-B-cells were generated from each patients' PBMC following standard methods and maintained in RPMI 1640 medium supplemented with 10 mM Hepes buffer, L-arginine (242 mg/l), L-asparagine (50mg/l), L-glutamine (300 mg/l), penicillin (10 IU/ml), streptomycin (100 μg/ml), 1% non-essential amino acids, and 10% FCS. […] PBMC's or EBV-B-cells were molecularly typed for HLA expression using standard procedures.
# NW2337 CD4+ T cells = assay: Cytokine ELISPOT assays (IFNγ, TNFα, IL4, IL10) of NW2337 CD4+ T cells; type: cell-based, human
# Source text: All ELISPOT assay described, supra were designed to detect IFN-γ secretion by the T cell clones following specific antigen stimulation. To determine the phenotype of the NY-ESO-1 specific CD4^+ T cell clones from patient NW2337, additional ELISPOT assays were designed to detect additional cytokines.
# The NW2337 CD4^+ T cells were stimulated with either NY-ESO-1 p49-66 and p55-72 peptides and T cells secretion of IFNγ, TNFα, IL4 and IL10measured by ELISPOT assay. […] IL4 and IL10 was not secreted by any of the NY-ESO-1 specific CD4^+ T-cell clones tested following stimulation with NY-ESO-1 p49-66 and p55-72 peptides.
# HLA-DQB1 03011 = target: T1, HLA-DQB1 03011 (Homo sapiens, UniProt P01909+P01920); assay: ELISPOT with peptide pulsed allogeneic EBV-B-cells of known HLA class II type (HLA restriction); type: cell-based; details: only shared allele of the recognized peptide pulsed allogenic EBV-B cell lines
# T1 construct: peptide pulsed allogeneic EBV-B-cells with known HLA class II types as stimulator cells; endogenous in cells; host or cells: allogeneic patient-derived EBV-transformed B-cell lines (NW-2078, NW-2081, NW-2395, NW-2234, NW-2337, NW-1100, MZ-1257)
# Procedure: In order to determine the HLA molecule to which the novel NY-ESO-1 peptides described above bind, the NW2337 CD4^+ T-cell clones NW2337-CD4-1 and NW2337-CD4-10, were tested in ELISPOT assays using a range of peptide pulsed allogeneic EBV-B-cells with known HLA class II types as stimulator cells as indicated in the following Table. The EBV-B-cell lines were HLA typed using standard methods as described above.
# The NW2337-CD4-1 clone recognized allogenic peptide pulsed EBV-B cells from patients NW-2078, NW-2081, NW-2395, NW-2234, NW-2337, NW-1100 and MZ-1257. The allogenic EBV-B cells were recognized by the T cells when pulsed exogenously with either the NY-ESO-1 p49-66 or p55-72 as observed with autologous EBV-B cells described above. […] None of the EBV-B-cells lines that were not recognized by the T cells expressed this MHC allele. […] Again the NY-ESO-1 positive MZ-1257 EBV-B-cell line was recognized with or without exogenous peptide.
# [5] = autologous EBV B cells pulsed with peptide 10 μg/ml
# T1 sequence (P01920 33-261, other chains not shown): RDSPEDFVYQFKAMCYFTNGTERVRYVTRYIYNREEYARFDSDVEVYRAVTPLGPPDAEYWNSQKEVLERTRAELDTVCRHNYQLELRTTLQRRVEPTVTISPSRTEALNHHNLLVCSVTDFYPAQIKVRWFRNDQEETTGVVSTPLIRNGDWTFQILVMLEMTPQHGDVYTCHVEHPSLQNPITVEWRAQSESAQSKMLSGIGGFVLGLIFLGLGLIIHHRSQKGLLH
substance,measurement,setting,value
"61-80: overlapping 20 mer NY-ESO-1 peptide, amino acids 61-80 (PRGPHGGAASGLNGCCRCGA; UniProt P78358 61-80, looked up, fragment) [Peptide 61-80]",recognition by clone NW2337-CD4-10,[1],able to recognize
"P49-66: synthetic 18 mer peptide, amino acids 49-66 of NY-ESO-1 (GAARASGPGGGAPRGPHG; UniProt P78358 49-66, looked up, fragment) [Peptide P49-66]",CD4+ T-cell clones generated by stimulation with peptide,CD4+ T cells [2],27
same,lysis of peptide pulsed autologous NW-2337-EBV B-cell lines by clones NW-2337-CD4-1 and -4,[3],efficiently lysed
same,recognition by clone NW2337-CD4-1,"[3]; autologous EBV B cells pulsed with peptide 10 μg/ml, clone generated with p49-66",recognized
same,recognition by clone NW2337-CD4-10,[3]; [5],did not crossreact
same,Patient T cells 1,CD4+ T cells [4],+ (+ indicates >50 spots (all + scores indicated were >100 spots))
same,Patient T cells 2,CD4+ T cells [4],+ (+ indicates >50 spots (all + scores indicated were >100 spots))
same,Patient T cells 3,CD4+ T cells [4],+ (+ indicates >50 spots (all + scores indicated were >100 spots))
same,patients whose CD4+ T cells recognized the peptide,CD4+ T cells [4],all three patients
same,IFN-γ secretion by stimulated T cell clones,NW2337 CD4+ T cells,produced
same,IL4 secretion by stimulated T cell clones,NW2337 CD4+ T cells,not secreted
same,IL10 secretion by stimulated T cell clones,NW2337 CD4+ T cells,not secreted
same,TNF-α secretion by stimulated T cell clones,NW2337 CD4+ T cells,produced
same,MHC class II allele presenting the peptide to NW2337-CD4-1 T cells,HLA-DQB1 03011,HLA-DQB1 03011
same,recognition by clone NW2337-CD4-1,[1],recognized
"P61-78: synthetic 18 mer peptide, amino acids 61-78 of NY-ESO-1 (PRGPHGGAASGLNGCCRC; UniProt P78358 61-78, looked up, fragment) [Peptide P61-78]",recognition by clone NW2337-CD4-10,[3]; [5],crossreacted
same,Patient T cells 1,CD4+ T cells [4],+ (+ indicates >50 spots (all + scores indicated were >100 spots))
same,Patient T cells 2,CD4+ T cells [4],+ (+ indicates >50 spots (all + scores indicated were >100 spots))
same,Patient T cells 3,CD4+ T cells [4],+ (+ indicates >50 spots (all + scores indicated were >100 spots))
same,patients whose CD4+ T cells recognized the peptide,CD4+ T cells [4],all three patients
same,recognition by clone NW2337-CD4-10,[1],able to recognize
"p51-70: overlapping 20 mer NY-ESO-1 peptide, amino acids 51-70 (ARASGPGGGAPRGPHGGAAS; UniProt P78358 51-70, looked up, fragment)",recognition by clone NW2337-CD4-1,[1],recognized
"p151-168: synthetic 18 mer peptide, amino acids 151-168 of NY-ESO-1 (SCLQQLSLLMWITQCFLP; UniProt P78358 151-168, looked up, fragment)",Patient T cells 1,CD4+ T cells [4],− (− indicates <50 spots)
same,Patient T cells 2,CD4+ T cells [4],− (− indicates <50 spots)
same,Patient T cells 3,CD4+ T cells [4],− (− indicates <50 spots)
"p157-174: synthetic 18 mer peptide, amino acids 157-174 of NY-ESO-1 (SLLMWITQCFLPVFLAQP; UniProt P78358 157-174, looked up, fragment)",Patient T cells 1,CD4+ T cells [4],− (− indicates <50 spots)
same,Patient T cells 2,CD4+ T cells [4],− (− indicates <50 spots)
same,Patient T cells 3,CD4+ T cells [4],− (− indicates <50 spots)
"p163-180: synthetic 18 mer peptide, amino acids 163-180 of NY-ESO-1 (TQCFLPVFLAQPPSGQRR; UniProt P78358 163-180, looked up, fragment)",Patient T cells 1,CD4+ T cells [4],− (− indicates <50 spots)
same,Patient T cells 2,CD4+ T cells [4],− (− indicates <50 spots)
same,Patient T cells 3,CD4+ T cells [4],− (− indicates <50 spots)
